Assay results published in patent publication US7214691B2, “2-substituted benzimidazole derivatives as selective melanin concentrating hormone receptor antagonists for the treatment of obesity and related disorders” (Schering Corporation, priority 2003, dated 2007).
Read-outs that look alike come from different tables or passages of the source.

Target: T1, MCH receptor (Homo sapiens, UniProt Q99705)
T1 construct: expressed in transfected cells; host or cells: CHO cells
Experiment: MCH Receptor Binding Assay
Details: membranes from CHO cells expressing the MCH receptor, [125I]-MCH, SPA
Protocol: MCH Receptor Binding Assay: Membranes from CHO cells expressing the MCH receptor were prepared by lysing cells with 5 mM HEPES for 15 min at 4 C. Cell lysates were centrifuged ([…], 15 min) and the pellet was resuspended in 5 mM HEPES. For each 96-well plate (Microlite, Dynex Technologies), 1 mg of cell membranes were incubated with 10 mg of wheat germ agglutinin SPA beads (Amersham) for 5 min at 4 C in a volume of 10 ml of binding buffer (25 mM HEPES, 10 mM MGCl2, 10 mM NaCl, 5 mM MnCl2, 0.1% BSA). The membrane/bead mixture was centrifuged (1500×g, 3.5 min), the supernatant was aspirated, and the pellet was resuspended in 10 ml binding buffer. The centrifugation, aspiration and resuspension were then repeated. The membrane/bead mixture (100 μl) was then added to 96-well plates containing 50 μl of 500 pM [^125I]-MCH (NEN) and […] of the appropriate concentration of compound (4× the desired final concentration). Nonspecific binding was determined by including 1 μM MCH in the binding reaction. The binding reaction was incubated at room temperature for 2 h. Plates were then analyzed in a TOPCOUNT microplate scintillation counter (Packard). Data was analyzed and Ki values were determined using GraphPad Prism.

[1] = class symbols, read-out: MCH Ki

T1 sequence (Q99705 whole entry): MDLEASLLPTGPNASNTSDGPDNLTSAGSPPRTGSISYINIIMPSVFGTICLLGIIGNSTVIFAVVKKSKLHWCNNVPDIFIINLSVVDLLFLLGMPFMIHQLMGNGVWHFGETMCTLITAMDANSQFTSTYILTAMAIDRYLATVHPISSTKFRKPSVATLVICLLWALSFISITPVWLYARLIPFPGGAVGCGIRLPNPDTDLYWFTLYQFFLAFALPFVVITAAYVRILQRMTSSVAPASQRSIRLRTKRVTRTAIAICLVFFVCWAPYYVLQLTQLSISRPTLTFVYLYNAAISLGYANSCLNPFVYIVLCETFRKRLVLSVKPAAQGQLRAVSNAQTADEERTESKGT

Structure (SMILES)	Ki [1] [nM]	Ki (numeric value in text, read-out: Ki value) [nM]
COc1cc(C(=C2CCN(CC3CC3)CC2)c2nc3cc(F)c(C(F)(F)F)cc3[nH]2)ccc1-c1cccc(C#N)c1 [Compound 1aa]	> 100	–
CCN(CC)C(=O)N1CCC2(CC1)CC2(c1ccc(-c2cccc(C#N)c2)cc1)c1nc2cc(F)c(C(F)(F)F)cc2[nH]1 (centres unmarked) [Compound 27c]	> 100	–
CCN(CC)C(=O)N1CCC(=C(c2ccc(-c3cccc(C#N)c3)cc2)c2nc3cc(F)c(C(F)(F)F)cc3[nH]2)CC1 [Compound 1x]	20 to 50	–
N#Cc1cccc(-c2ccc(C(=C3CCN(Cc4ccccc4)CC3)c3nc4cc(F)ccc4[nH]3)cc2)c1 [Compound 1a]	> 100	–
CS(=O)(=O)N1CCC(=C(c2ccc(-c3cccc(C#N)c3)cc2)c2nc3cc(Cl)c(Cl)cc3[nH]2)CC1 [Compound 1g]	50 to 100	–
N#Cc1cccc(-c2ccc(C3(c4nc5cc(F)c(C(F)(F)F)cc5[nH]4)CC34CCN(c3nc5ccc(Cl)cc5s3)CC4)cc2)c1 (centres unmarked) [Compound 29b]	> 100	–
N#Cc1cccc(-c2ccc(C(=C3CCNCC3)c3nc4cc(C(F)(F)F)c(F)cc4[nH]3)cc2)c1 [Compound 1r]	< 20	–
COc1cc(C(=C2CCNCC2)c2nc3cc(F)c(C(F)(F)F)cc3[nH]2)ccc1-c1cccc(C#N)c1 [Compound 1ab]	> 100	–
CC(C)(C)OC(=O)N1CCC2(CC1)CC2(c1ccc(-c2cccc(C#N)c2)cc1)c1nc2cc(F)c(C(F)(F)F)cc2[nH]1 (centres unmarked) [Compound 23a]	> 100	–
O=Cc1cccc(-c2ccc(C(=C3CCN(CC4CC4)CC3)c3nc4cc(Cl)c(Cl)cc4[nH]3)cc2)c1 [Compound 1k]	20 to 50	–
N#Cc1cccc(-c2ccc(C(=C3CCNCC3)c3nc4cc(Cl)c(Cl)cc4[nH]3)cc2)c1 [Compound 1c]	< 20	–
Clc1cc2nc(C(=C3CCN(CC4CC4)CC3)c3ccc(-c4cccnc4)cc3)[nH]c2cc1Cl [Compound 1j]	50 to 100	–
N#Cc1cccc(-c2ccc(C3(c4nc5cc(F)c(C(F)(F)F)cc5[nH]4)CC34CCN(c3nc5ccccc5s3)CC4)cc2)c1 (centres unmarked) [Compound 29c]	> 100	–
N#Cc1cccc(-c2ccc(C(=C3CCNCC3)c3nc4cc(F)c(F)cc4[nH]3)cc2)c1 [Compound 1o]	50 to 100	–
N#Cc1cccc(-c2ccc(C3(c4nc5cc(Cl)c(Cl)cc5[nH]4)CC34CCN(CC3CC3)CC4)cc2)c1 (centres unmarked) [Compound 25b]	< 20	–
N#Cc1cccc(-c2ccc(C(=C3CCN(CC(=O)O)CC3)c3nc4cc(F)c(C(F)(F)F)cc4[nH]3)cc2)c1 [Compound 1z]	< 20	–
N#Cc1ccc(-c2ccc(C(=C3CCN(CC4CC4)CC3)c3nc4cc(Cl)c(Cl)cc4[nH]3)cc2)cc1 [Compound 1i]	> 100	–
CN(C)Cc1cccc(-c2ccc(C(=C3CCN(CC4CC4)CC3)c3nc4cc(Cl)c(Cl)cc4[nH]3)cc2)c1 [Compound 1l]	20 to 50	–
N#Cc1cccc(-c2ccc(C(=C3CCN(CC4CC4)CC3)c3nc4cc(Cl)c(Cl)cc4[nH]3)cc2)c1 [Compound 1d]	< 20	–
CN1CCC(=C(c2ccc(-c3cccc(C#N)c3)cc2)c2nc3cc(Cl)c(Cl)cc3[nH]2)CC1 [Compound 1e]	20 to 50	–

Structure (SMILES)	Ki [1] [nM]	Ki (numeric value in text, read-out: Ki value) [nM]
CN(C)C(=O)N1CCC2(CC1)CC2(c1ccc(-c2cccc(C#N)c2)cc1)c1nc2cc(F)c(C(F)(F)F)cc2[nH]1 (centres unmarked) [Compound 27a]	20 to 50	–
N#Cc1cccc(-c2ccc(C3(c4nc5cc(F)c(C(F)(F)F)cc5[nH]4)CC34CCN(CC(=O)O)CC4)cc2)c1 (centres unmarked) [Compound 28a]	20 to 50	–
N#Cc1cccc(-c2ccc(C3(c4nc5cc(Cl)c(Cl)cc5[nH]4)CC34CCNCC4)cc2)c1 (centres unmarked) [Compound 24b]	< 20	–
CN1CCC(=C(c2ccc(-c3cccc(C#N)c3)cc2)c2nc3cc(F)c(F)cc3[nH]2)CC1 [Compound 1p]	> 100	–
N#Cc1cccc(-c2ccc(C3(c4nc5cc(F)c(C(F)(F)F)cc5[nH]4)CC34CCN(c3nccs3)CC4)cc2)c1 (centres unmarked) [Compound 29a]	> 100	–
N#Cc1cccc(-c2ccc(C3(c4nc5cc(Cl)c(Cl)cc5[nH]4)CC34CCN(Cc3ccccc3)CC4)cc2)c1 (centres unmarked) [Compound 23c]	< 20	–
CC(C)S(=O)(=O)N1CCC2(CC1)CC2(c1ccc(-c2cccc(C#N)c2)cc1)c1nc2cc(Cl)c(Cl)cc2[nH]1 (centres unmarked) [Compound 26b]	> 100	–
Fc1cc(F)cc(-c2ccc(C(=C3CCN(CC4CC4)CC3)c3nc4cc(Cl)c(Cl)cc4[nH]3)cc2)c1 [Compound 1h]	> 100	–
CC(C)(C)OC(=O)N1CCC(=C(c2ccc(-c3cccc(C#N)c3)cc2)c2nc3cc(F)c(F)cc3[nH]2)CC1 [Compound 1n]	> 100	–
N#Cc1cccc(-c2ccc(C(=C3CCN(CC4CC4)CC3)c3nc4cc(Cl)cc(Cl)c4[nH]3)cc2)c1 [Compound 1u]	50 to 100	–
N#Cc1cccc(-c2ccc(C(=C3CCN(CC4CC4)CC3)c3nc4cc(F)c(F)cc4[nH]3)cc2)c1 [Compound 1q]	50 to 100	–
N#Cc1cccc(-c2ccc(C(=C3CCN(Cc4ccccc4)CC3)c3nc4cc(F)c(Cl)cc4[nH]3)cc2)c1 [Compound 1b]	< 20	–
CC(C)(C)OC(=O)N1CCC2(CC1)CC2(c1ccc(-c2cccc(C#N)c2)cc1)c1nc2cc(Cl)c(Cl)cc2[nH]1 (centres unmarked) [Compound 23b]	> 100	–
N#Cc1cccc(-c2ccc(C3(c4nc5cc(F)c(C(F)(F)F)cc5[nH]4)CC34CCNCC4)cc2)c1 (centres unmarked) [Compound 24a]	< 20	1.7
N#Cc1cccc(-c2ccc(C(=C3CCN(C4CCCC4)CC3)c3nc4cc(Cl)c(Cl)cc4[nH]3)cc2)c1 [Compound 1f]	< 20	–
N#Cc1cccc(-c2ccc(C(=C3CCNCC3)c3nc4c(Cl)cc(Cl)cc4[nH]3)cc2)c1 [Compound 1t]	> 100	–
CN(C)C(=O)N1CCC(=C(c2ccc(-c3cccc(C#N)c3)cc2)c2nc3cc(F)c(C(F)(F)F)cc3[nH]2)CC1 [Compound 1y]	20 to 50	–
CC(C)S(=O)(=O)N1CCC2(CC1)CC2(c1ccc(-c2cccc(C#N)c2)cc1)c1nc2cc(F)c(C(F)(F)F)cc2[nH]1 (centres unmarked) [Compound 26a]	50 to 100	–
CS(=O)(=O)N1CCC(=C(c2ccc(-c3cccc(C#N)c3)cc2)c2nc3cc(F)c(C(F)(F)F)cc3[nH]2)CC1 [Compound 1v]	50 to 100	–
Clc1cc2nc(C(=C3CCN(CC4CC4)CC3)c3ccc(-c4cccc(CN5CCC5)c4)cc3)[nH]c2cc1Cl [Compound 1m]	50 to 100	–
